Measurements taken from patent US20030190671A1, “Use of metabolic phenotyping in individualized treatment with amonafide” (McGill University, priority 2001, published 2003).
Where two headings read alike, the source gives them in different places. Marks after values point to notes of the source that are not given here.

Columns and labels:
[1] = cited from earlier work
[2] = biological target: T1, CYP1A2 (Homo sapiens, UniProt P05177); conditions: in vitro; cited from earlier work
T1 sequence (P05177 1-516): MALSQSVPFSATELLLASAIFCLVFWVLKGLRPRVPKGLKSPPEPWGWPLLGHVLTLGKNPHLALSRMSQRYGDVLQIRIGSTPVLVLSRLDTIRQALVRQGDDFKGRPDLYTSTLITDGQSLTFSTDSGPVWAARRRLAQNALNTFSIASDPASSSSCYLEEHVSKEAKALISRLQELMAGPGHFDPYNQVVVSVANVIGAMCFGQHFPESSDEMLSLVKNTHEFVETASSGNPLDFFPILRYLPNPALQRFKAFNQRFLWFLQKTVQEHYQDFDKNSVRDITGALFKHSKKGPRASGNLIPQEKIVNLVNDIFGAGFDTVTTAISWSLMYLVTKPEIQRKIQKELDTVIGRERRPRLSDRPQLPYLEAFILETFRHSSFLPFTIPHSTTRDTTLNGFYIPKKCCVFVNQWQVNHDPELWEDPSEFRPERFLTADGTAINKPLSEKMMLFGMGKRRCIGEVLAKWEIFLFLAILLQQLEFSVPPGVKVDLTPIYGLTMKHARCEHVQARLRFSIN

[3] = Felder et al.; cited from earlier work
[4] = tested on: CYP2D6; conditions: cited from earlier work
[5] = tested on: 1,7-DMX-Ab; test: Competitive antigen ELISA, antibody specificity of 1,7-DMX-Ab; assay type: binding, rabbit; conditions: hypothesized ideal antibody specificity; 0 = no inhibition or no higher than 40% at 5×10^−3 M
Description: (§1) Competitive Antigen ELISA
(§2) BSA, antibodies, Tween™ 20 and horse radish peroxidase are added to buffers and water just prior to use. Urine samples are usually collected four hours after drinking a cup of coffee (instant or brewed with approximately 100 mg of caffeine per cup) and stored at −20° C. as 1-mL aliquots in 1.5-mL microtubes. For the ELISA, the urine samples are diluted with isotonic sodium phosphate buffer, pH 7.5 (310 mosM) to give concentrations of caffeine, 1.7-DMX and 1,7-DMU no higher than 3×10^−6 M in the microtiter plate wells. Wells of the ELISA plate are washed with a Nunc-Immuno wash 12 washer. Sixteen milliliters of a solution of 6.6 μg ml^−1 of isolated IgG antibodies is prepared in a 100 mM sodium carbonate buffer, pH 9.6, and 150 μL of this solution is pipetted in each well of a microtiter plate using a eight channel pipet (Brinkmann Transferpette™-8 50-200 μL) and 200 μL Flex tips from Brinkmann). After coating the wells with antibodies at 4° C. for 20 hours, the wells are washed 3 times with the isotonic sodium phosphate buffer containing 0.05% Tween™ 20 (IPBT) and properly drained by inverting the plate and absorbing the liquid on to a piece of paper towel. Thirty milliliters of a solution of a IPBT solution containing 1% BSA is prepared and 150 μL of this solution is pipetted in each well using a eight channel pipet (Brinkmann Transferpet-te™-8 50-200 μL) and 200 μL yellow tips (Sarstedt yellow tips for P200 Gilson Pipetman). After 3 hours at room temperature, the wells are washed 3 times with IPBT solution and drained. Samples of 400 μL for determination of caffeine, 1,7-DMX and 1,7-DMU are prepared in 1.5-mL microtubes using Sarstedt yellow tips and a P200 Gilson Pipetman. Then, 200 μL of each sample are pipetted in duplicate in a Falcon 96-well microtest tissue culture plate according to the pattern shown in FIG. 23, using Sarstedt yellow tips and a P200 Gilson Pipetman. Using an eight channel pipet (Brinkmann Transferpette™-8 50-200 μL) and changing the tips of the eight channel pipet (200 μL Flex tips from Brinkmann) at each row, 150 μL of samples are transferred in the corresponding wells of a 96-well ELISA microtiter plate coated with antibodies. After the addition of the samples, the microtiter plates are covered and left standing at room temperature for 2 h. While the plate is left standing the substrate buffer without the hydrogen peroxide and o-phenylenediamine hydrochloride is prepared (25 mM citric acid and 50 mM sodium phosphate dibasic buffer, pH 5.0). The microtiter plate is washed 3 times with the IPBT solution and 3 times with a 0.05% Tween 20 solution and drained. Then, 50 […] of hydrogen peroxide and 40 mg of o-phenylenediamine are added to the substrate buffer. One hundred fifty microliters (150 μL) of the substrate buffer solution is then added to each well using a eight channel pipet (Brinkmann Transferpette™-8 50-200 μL) and 200 μL Flex tips (Brinkmann). The microtiter plate is covered and shaken for 25-30 min at room temperature and the enzymatic reaction is stopped by adding 50 μL/well of a 2.5 N HCl solution using an eight channel pipet (Brinkmann Transferpette™-8 50-200 μL) and 200 μL Flex tips (Brinkmann).

[6] = tested on: Caffeine-Ab; test: Competitive antigen ELISA, antibody specificity of caffeine-Ab; assay type: binding, rabbit; conditions: hypothesized ideal antibody specificity; 0 = no inhibition or no higher than 40% at 5×10^−3 M
Description: as §1, §2

[7] = tested on: 1,7-DMU-Ab; test: Competitive antigen ELISA, antibody specificity of 1,7-DMU-Ab; assay type: binding, rabbit; conditions: hypothesized ideal antibody specificity; 0 = no inhibition or no higher than 40% at 5×10^−3 M
Description: as §1, §2

[8] = tested on: 1X-Ab; test: Competitive antigen ELISA, cross-reactivity of 1X-Ab; assay type: binding, rabbit; conditions: for % Cross-Reaction 1X-Ab: competitive antigen ELISA, 0 = absence of inhibition or inhibition no higher than 40% at the highest concentration tested (5×10^−3 M)
Description: as §1
(§3) Buffers and water without additives are filtered through millipore filters and kept for 1 week. BSA, antibodies, Tween™ 20 and horse radish peroxidase conjugates are added to these buffers and water just prior to use. Urine samples are usually collected 4 hours after drinking a cup of coffee (instant or brewed with approximately 100 mg of caffeine per cup) and stored at −80° C. The urine samples are diluted 10 times with sodium phosphate buffer (620 mosm, pH 7.50) and are subsequently diluted with water to give concentrations of AAMU and 1X no higher than 3×10^−6 M in the ELISA. All the pipettings are done with an eight-channel pipette, except those of the antibody and sample solutions. Starting with the last well, 100 μL of a carbonate buffer (100 mM, pH 9.6) containing 2.5 μg mL-1 antibodies are added to each well. After 90 min. at room temperature, the wells are washed three times with 100 mL of TPB: isotonic sodium phosphate buffer (310 mosm, pH 7.50) containing 0.05% Tween™ 20.
(§4) After the initial wash, unoccupied sites are blocked by incubation for 90 min. at room temperature with 100 μL TBP containing 3% BSA. The wells are washed four times with 100 […] TPB. […] The microplate is gently shaken with an orbital shaker at room temperature for 3-4 hours. The wells are washed three times with 100 μL TPB containing 1% BSA and three times with water containing 0.05% Tween™ 20. To the washed plate is added 150 μL of a substrate buffer composed of citric acid (25 mM) and sodium phosphate dibasic buffer (50 mM, pH 5.0) containing 0.06% hydrogen peroxide and 0.04% o-phenylenediamine hydrochloride.
as §3, with “were” for “are”, “They were” for “The urine samples are”, “mL^−1” for “mL-1”, “was pipetted.” for “are added to each well.”, “μL” for “mL”
(§5) After the initial wash, unoccupied sites were blocked by incubation for 90 min. at room temperature with 100 μL TBP containing 3% BSA. The wells were washed four times with 100 μL TPB. […] The microplate was gently shaken with an orbital shaker at room temperature for 3-4 hours. The wells were washed three times with 100 μL with TPB containing 1% BSA and three times with water containing 0.05% Tween™ 20. To the washed plate was added 150 μL of a substrate buffer composed of citric acid (25 mM) and sodium phosphate dibasic buffer (50 mM, pH 5.0) containing 0.06% hydrogen peroxide and 0.04% o-phenylenediamine hydrochloride. After 20 min. at room temperature with shaking, the reaction was stopped with 50 μL of 2.5 N HCl.
(§6) The cross reactivities of AAMU-Ab and 1X-Ab were tested using a wide variety of caffeine metabolites and structural analogs (Table 2 below).

[9] = tested on: AAMU-Ab; test: Competitive antigen ELISA, cross-reactivity of AAMU-Ab; assay type: binding, rabbit; conditions: for % Cross-Reaction AAMU-Ab: competitive antigen ELISA, 0 = absence of inhibition or inhibition no higher than 40% at the highest concentration tested (5×10^−3 M)
Description: as §1, §3, §4
as §3, with “were” for “are”, “They were” for “The urine samples are”, “mL^−1” for “mL-1”, “was pipetted.” for “are added to each well.”, “μL” for “mL”
as §5, §6

| SMILES | % Cross-reaction 1,7-DMX-Ab [5] [%] | % Cross-reaction Caffeine-Ab [6] [%] | % Cross-reaction 1,7-DMU-Ab [7] [%] | % Cross-Reaction 1X-Ab [8] [%] | % Cross-Reaction AAMU-Ab [9] | further results |
| --- | --- | --- | --- | --- | --- | --- |
| Nc1ccc(S(=O)(=O)c2ccc(N)cc2)cc1 [dapsone] | – | – | – | – | – | adverse reactions ([1]; fast acetylators): 17%; adverse reactions ([1]; slow acetylators): 46% |
| CC(=O)Nc1cc2c3c(cccc3c1)C(=O)N(CCN(C)C)C2=O [N-acetyl-amonafide] | – | – | – | – | – | effect on amonafide oxidation (CYP1A2) [2]: inhibition of amonafide oxidation; potency relative to the parent drug amonafide [3]: approximately equipotent to the parent drug |
| COc1ccc2c(c1)[C@]13CCCC[C@@H]1[C@H](C2)N(C)CC3 [Dextromethorphan] | – | – | – | – | – | mean performance +/−SE ([4]; extensive metabolizers (EMs), p<0.05 vs PMs): 95+/−0.5%; mean performance +/−SE ([4]; poor metabolizers (PMs), p<0.05 vs EMs): 86+/−6% |
| O=c1[nH]c(=O)c2[nH]cnc2[nH]1 [Xanthine] | 0 | 0 | 0 | 0 | 0^a % | – |
| Cn1c(=O)c2[nH]cnc2n(C)c1=O [1,3-Dimethyl Xanthine (Theophylline), 1,3-Dimethyl Xanthine] | 0 | 0 | 0 | 0.2 | 0% | – |
| Cn1c(=O)[nH]c2nc[nH]c2c1=O [1-Methyl Xanthine (1X), 1-methylxanthine] | 0 | 0 | 0 | 100 | 0% | IC50 ([8]; read-out: concentration required for 50% inhibition in the competitive antigen ELISA, 1X-Ab): 10 µM |
| CC(=O)Nc1c(N)n(C)c(=O)[nH]c1=O [5-acetamino-6-amino-1-methyluracil] | 0 | 0 | 0 | 0 | 100% | IC50 ([9]; read-out: concentration required for 50% inhibition in the competitive antigen ELISA, AAMU-Ab): 1.5 µM |
| Cn1c(=O)[nH]c2ncn(C)c2c1=O [1,7-Dimethyl Xanthine (Paraxanthine), 1,7-dimethylxanthine] | 100 | 0 | 0 | 0.5 | 0% | – |
| C[N+](C)([O-])CCN1C(=O)c2cccc3cc(N)cc(c23)C1=O [N-oxide-amonafide] | – | – | – | – | – | potency relative to the parent drug amonafide [3]: essentially inactive |
| Cn1cnc2[nH]c(=O)[nH]c(=O)c21 [7-Methyl Xanthine] | 0 | 0 | 0 | 0 | 0% | – |
| O=c1[nH]cnc2nc[nH]c12 [Hypoxanthine] | 0 | 0 | 0 | 0 | 0% | – |
